{"source": "patent US20220110934A1", "about": "“PHARMACEUTICAL COMPOSITION” (Ricoh Company, Ltd., priority 2019, published 2022)", "assay": "Dissolution test in physiological saline (Test Example 1, FIG. 11)", "format": "physicochemical", "details": "6 mg/mL as nintedanib in 100 mL physiological saline, 20° C., stirring", "experimental": "The pharmaceutical composition (i) or the nintedanib ethanesulfonate (obtained from LC laboratories) was added to 100 mL of physiological saline so that the amount of nintedanib would be 6 mg/mL. The resultant mixture was subjected to a dissolution test at a liquid temperature of 20° C. under stirring with a stirrer.\nFIG. 11 is a graph presenting the concentrations of nintedanib in the solutions measured over time.", "data": [{"molecule": "COC(=O)c1ccc2c(c1)NC(=O)/C2=C(\\Nc1ccc(N(C)C(=O)CN2CCN(C)CC2)cc1)c1ccccc1", "note": "[nintedanib ethanesulfonate, Nintedanib ethanesulfonate]", "values": [{"measurement": "course of solubility (concentration of nintedanib in solution) over time", "value": "solubility decreased over time and sedimentation of insoluble matter was observed"}]}]}
